Test results: ChEMBL document CHEMBL1201862, “PubChem BioAssay data set” (2004)
Activity calls are given as the source filed them.

Assays:
[1] = target: T1, Heat shock factor protein 1 (Mus musculus, UniProt P38532); assay: inhibition of MG132-induced HSE-luciferase signal, confirmation, cell-based, NIH3T3, luminescence, dose retest (AID 2382); type: functional;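 further: NIH3T3 fibroblasts with HSF1-driven luciferase reporter stressed by proteasome inhibitor MG132; luminescence from HSF1-driven luciferase expression after 8 hours of MG132 stress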
T1 sequence (P38532 whole entry): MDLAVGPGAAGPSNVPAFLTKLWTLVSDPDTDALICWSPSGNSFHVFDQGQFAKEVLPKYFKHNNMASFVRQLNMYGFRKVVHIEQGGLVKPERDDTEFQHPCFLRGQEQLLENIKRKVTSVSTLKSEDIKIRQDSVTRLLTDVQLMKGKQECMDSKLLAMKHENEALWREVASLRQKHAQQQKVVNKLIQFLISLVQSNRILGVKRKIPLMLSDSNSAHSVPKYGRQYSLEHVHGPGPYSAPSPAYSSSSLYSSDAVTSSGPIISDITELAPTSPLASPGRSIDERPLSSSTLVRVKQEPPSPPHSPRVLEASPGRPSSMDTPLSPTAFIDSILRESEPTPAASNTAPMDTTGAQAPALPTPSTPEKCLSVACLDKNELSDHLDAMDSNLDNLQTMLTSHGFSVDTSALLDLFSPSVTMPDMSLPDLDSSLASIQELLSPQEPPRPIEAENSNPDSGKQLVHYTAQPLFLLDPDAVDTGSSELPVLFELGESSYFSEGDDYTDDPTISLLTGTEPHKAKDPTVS

Cytochrome P450 3A4 = Cytochrome P450 3A4 (Homo sapiens, UniProt P08684);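 further: CYP3A4 tested as one member of a cytochrome P450 panel screen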
Cytochrome P450 2C9 = Cytochrome P450 2C9 (Homo sapiens, UniProt P11712)
Cytochrome P450 2C19 = Cytochrome P450 2C19 (Homo sapiens, UniProt P33261); assay: Cytochrome panel assay with activity outcomes. Panel member name: p450-cyp2c19 Compounds with AC50 equal or less than 10 uM are considered active; type: functional; settings: read-out: AC50
Cytochrome P450 2D6 = Cytochrome P450 2D6 (Homo sapiens, UniProt P10635);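 further: CYP2D6 member of a cytochrome P450 panel assay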
cells [2] = type: functional, cell-based
cells [3] = type: functional, cell-based; remark: listed apart in the source
cells [4] = type: functional, cell-based; remark: listed apart in the source
INS1 = assay: beta cell apoptosis inhibitors, cytokine rescue, dose response, luminescence, retest (AID 449756); type: functional, cell-based; settings: Rattus norvegicus;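 further: cell death triggered by IL-1 beta plus TNF-alpha plus IFN-gamma mixture; protective hits raise ATP signal compared with cytokine alone wells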
[5] = cytotoxicity toward NIH3T3 fibroblasts, dose response, counter-screen, cell-based, ATP luminescence, mouse fibroblasts (AID 2010); type: functional;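 further: cells exposed to compound for about 90 hours before reading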
cells [6] = type: functional, cell-based; remark: listed apart in the source
cells [7] = type: functional
[8] = Vero E6 cell cytotoxicity, dose response, cytotoxicity control for non-replicating M. tuberculosis project, secondary assay (AID 492998); type: functional, VeroE6; settings: Vero C1008
[9] = inhibitors of intracellular T. cruzi replication, confirmation, NIH3T3 host cells, beta-gal luminescence (AID 2044); type: functional, cell-based;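 further: intracellular parasites grown in NIH/3T3 mouse fibroblasts as host cells; luminescent beta-galactosidase reporter signal from transgenic T. cruzi replicating inside host cells; inhibitors lower the luminescence signal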
[10] = THP-1 cell cytotoxicity, dose response, cytotoxicity control for non-replicating M. tuberculosis project (AID 489025); type: functional
[11] = microbe, parasite or virus in culture; type: functional; settings: Mycobacterium tuberculosis
Escherichia coli = assay: microbe, parasite or virus in culture
Protein Wnt-3a = Protein Wnt-3a (Mus musculus, UniProt P27467); assay: Wnt3a-driven reporter signaling inhibition, dose response, selectivity assay for Gli-SUFU antagonist project, Wnt-LIGHT cells, luminescence (AID 651570); type: functional; settings: read-out: IC50_Mean;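 further: Wnt-LIGHT reporter cells stimulated with conditioned medium from Wnt3a-producing cells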
[12] = Luminescence Cell-Based Dose Response HTS to Identify Inhibitors of 5'UTR Stem-Loop Driven Prion Protein mRNA Translation in H4 Neuroglioblastoma Cells. [Related pubchem assays: 1827 (Project Summary), 1813 (Primary HTS)]; type: functional
[13] = cytotoxicity in HEK-293T cells, dose response, cytotoxicity control for TCR NF-kB inhibitor project, luminescence, T-cell screen hits (AID 489026); type: functional, cell-based;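 further: cells exposed to compound about 14 hours before the viability readout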
[14] = inhibitors of SNCA 5'UTR-driven reporter translation, confirmation, H4 neuroglioma cells, luminescence (AID 1988); type: functional, cell-based
[15] = inhibitors of firefly luciferase expression or activity, dose response, H4 neuroglioma cells, luminescence (AID 1990); type: functional, cell-based
[16] = target: T2, Corticotropin-releasing factor receptor 2/Corticotropin-releasing factor-binding protein (Homo sapiens, UniProt P24387+Q13324); assay: activators of CRF receptor 2 with binding protein – uHTS hits, confirmation (AID 602473); type: functional; settings: read-out: EC50_Mean
T2 sequence (Q13324 whole entry): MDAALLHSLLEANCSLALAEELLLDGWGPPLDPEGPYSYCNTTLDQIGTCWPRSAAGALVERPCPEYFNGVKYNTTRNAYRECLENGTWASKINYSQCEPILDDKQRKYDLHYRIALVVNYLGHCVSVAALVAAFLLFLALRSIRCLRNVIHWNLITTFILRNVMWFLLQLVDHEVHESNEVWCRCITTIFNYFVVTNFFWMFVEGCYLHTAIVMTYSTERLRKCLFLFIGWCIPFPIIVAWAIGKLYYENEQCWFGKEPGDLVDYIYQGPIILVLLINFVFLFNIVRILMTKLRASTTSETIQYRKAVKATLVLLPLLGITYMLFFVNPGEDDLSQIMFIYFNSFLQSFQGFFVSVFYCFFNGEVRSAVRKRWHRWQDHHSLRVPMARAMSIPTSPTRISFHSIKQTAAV
T2 sequence (P24387 whole entry): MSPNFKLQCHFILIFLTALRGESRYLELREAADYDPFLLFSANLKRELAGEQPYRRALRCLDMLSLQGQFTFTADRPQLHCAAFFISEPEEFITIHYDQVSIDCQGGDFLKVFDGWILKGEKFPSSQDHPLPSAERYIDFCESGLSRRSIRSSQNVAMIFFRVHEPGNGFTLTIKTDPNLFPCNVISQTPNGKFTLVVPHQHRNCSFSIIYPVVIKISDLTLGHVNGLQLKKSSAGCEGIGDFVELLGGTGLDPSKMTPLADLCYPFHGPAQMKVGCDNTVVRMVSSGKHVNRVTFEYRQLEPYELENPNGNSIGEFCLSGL

[17] = target: T2, Corticotropin-releasing factor receptor 2/Corticotropin-releasing factor-binding protein; assay: Dose Response confirmation of uHTS hits for small molecule antagonists of the CRF-binding protein and CRF-R2 receptor complex.; type: functional; settings: read-out: IC50_Mean
[18] = control 3'UTR Renilla luciferase suppression, dose response, counter-screen for Shn3 inhibitor project, cell-based, Clone20-Shn3RL, cherry-picked (AID 624133); type: functional
[19] = Shn3 3'UTR reporter inhibitors, dose response, cell-based, Clone20 osteoblasts, firefly luciferase, cherry-picked (AID 624132); type: functional;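 further: firefly luciferase luminescence from reporter carrying the Shn3 3'UTR in osteoblasts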
[20] = HepG2 cell cytotoxicity, dose response, cytotoxicity control for Shn3 inhibitor project, CellTiter-Glo, cherry-picked (AID 624134); type: functional, cell-based
P388 = assay: cells; type: functional; settings: Mus musculus
SN12K1 = assay: cells; type: functional; settings: Homo sapiens
P388/ADR = assay: cells; type: functional; settings: Mus musculus
BJ [21] = assay: cytotoxicity toward BJ-TERT-LT-ST fibroblasts, dose response, cell-based, RAS-independent, luminescence (AID 1935); type: functional; settings: Homo sapiens;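 further: BJ fibroblasts immortalized with TERT plus LT and ST oncogenes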
[22] = cytotoxicity toward DRD oncogenic fibroblasts, dose response, cell-based, non-viral oncogenic, luminescence (AID 1934); type: functional; settings: Homo sapiens
BJ [23] = assay: cells; type: functional, cell-based; settings: Homo sapiens
[24] = Luminescence Cell-Based Dose Retest to Confirm Inhibitors of Cancer Stem Cells. [Related pubchem assays (depositor defined):AID2717, AID2721]; type: functional; settings: Homo sapiens
BJ [25] = assay: cytotoxicity toward BJ-TERT fibroblasts, dose response, cell-based, RAS-independent, luminescence (AID 1933); type: functional; settings: Homo sapiens

Cytochrome P450 3A4, sequence (P08684 whole entry): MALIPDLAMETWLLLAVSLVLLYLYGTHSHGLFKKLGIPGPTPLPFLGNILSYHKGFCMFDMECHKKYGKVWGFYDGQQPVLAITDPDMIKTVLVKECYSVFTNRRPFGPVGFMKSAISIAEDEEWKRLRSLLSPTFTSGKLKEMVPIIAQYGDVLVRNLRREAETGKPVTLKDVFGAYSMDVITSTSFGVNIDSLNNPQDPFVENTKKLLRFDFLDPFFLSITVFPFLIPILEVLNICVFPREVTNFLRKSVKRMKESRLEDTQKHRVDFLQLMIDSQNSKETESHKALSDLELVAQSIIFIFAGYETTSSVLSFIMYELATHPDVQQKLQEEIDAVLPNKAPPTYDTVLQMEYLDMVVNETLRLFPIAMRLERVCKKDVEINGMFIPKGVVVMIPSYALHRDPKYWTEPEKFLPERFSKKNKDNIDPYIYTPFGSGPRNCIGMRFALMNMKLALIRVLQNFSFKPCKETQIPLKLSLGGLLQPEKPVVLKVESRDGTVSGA
Cytochrome P450 2C9, sequence (P11712 whole entry): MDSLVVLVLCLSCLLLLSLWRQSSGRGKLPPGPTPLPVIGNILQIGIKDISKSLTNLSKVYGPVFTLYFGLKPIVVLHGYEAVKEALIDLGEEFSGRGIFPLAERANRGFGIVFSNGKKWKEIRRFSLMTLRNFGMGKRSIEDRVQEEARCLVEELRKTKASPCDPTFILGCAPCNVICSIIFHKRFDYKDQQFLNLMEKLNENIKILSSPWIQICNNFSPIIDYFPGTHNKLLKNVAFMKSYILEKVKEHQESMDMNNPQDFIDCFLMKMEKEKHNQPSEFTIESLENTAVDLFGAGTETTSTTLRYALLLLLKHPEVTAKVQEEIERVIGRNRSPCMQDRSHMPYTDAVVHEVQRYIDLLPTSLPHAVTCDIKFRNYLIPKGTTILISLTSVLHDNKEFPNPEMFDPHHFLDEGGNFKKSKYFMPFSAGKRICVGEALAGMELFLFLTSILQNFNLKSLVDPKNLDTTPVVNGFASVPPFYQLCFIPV
Protein Wnt-3a, sequence (P27467 whole entry): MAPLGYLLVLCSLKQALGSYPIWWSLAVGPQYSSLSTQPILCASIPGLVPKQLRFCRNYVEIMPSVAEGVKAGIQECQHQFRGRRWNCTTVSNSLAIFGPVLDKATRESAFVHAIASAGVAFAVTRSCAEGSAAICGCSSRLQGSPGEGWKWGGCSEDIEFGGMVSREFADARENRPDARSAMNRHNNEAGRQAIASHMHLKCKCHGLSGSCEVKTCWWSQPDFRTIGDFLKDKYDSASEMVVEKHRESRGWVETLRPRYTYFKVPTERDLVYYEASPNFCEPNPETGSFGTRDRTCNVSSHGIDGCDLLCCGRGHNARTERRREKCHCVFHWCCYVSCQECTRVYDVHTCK
Cytochrome P450 2C19, sequence (P33261 whole entry): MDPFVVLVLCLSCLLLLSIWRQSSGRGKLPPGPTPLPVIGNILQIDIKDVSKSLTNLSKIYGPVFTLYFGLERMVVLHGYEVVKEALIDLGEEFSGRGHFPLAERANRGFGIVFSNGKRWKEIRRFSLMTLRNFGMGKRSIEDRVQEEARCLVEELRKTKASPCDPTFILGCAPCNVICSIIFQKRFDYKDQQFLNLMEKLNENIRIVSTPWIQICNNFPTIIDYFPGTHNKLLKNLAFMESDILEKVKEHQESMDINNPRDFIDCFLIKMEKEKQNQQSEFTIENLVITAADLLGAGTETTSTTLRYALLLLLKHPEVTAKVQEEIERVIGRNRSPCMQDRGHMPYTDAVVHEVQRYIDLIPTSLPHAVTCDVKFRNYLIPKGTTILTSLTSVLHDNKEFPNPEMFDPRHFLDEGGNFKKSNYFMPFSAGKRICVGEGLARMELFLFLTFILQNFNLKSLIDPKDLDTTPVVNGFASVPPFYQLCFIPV
Cytochrome P450 2D6, sequence (P10635 whole entry): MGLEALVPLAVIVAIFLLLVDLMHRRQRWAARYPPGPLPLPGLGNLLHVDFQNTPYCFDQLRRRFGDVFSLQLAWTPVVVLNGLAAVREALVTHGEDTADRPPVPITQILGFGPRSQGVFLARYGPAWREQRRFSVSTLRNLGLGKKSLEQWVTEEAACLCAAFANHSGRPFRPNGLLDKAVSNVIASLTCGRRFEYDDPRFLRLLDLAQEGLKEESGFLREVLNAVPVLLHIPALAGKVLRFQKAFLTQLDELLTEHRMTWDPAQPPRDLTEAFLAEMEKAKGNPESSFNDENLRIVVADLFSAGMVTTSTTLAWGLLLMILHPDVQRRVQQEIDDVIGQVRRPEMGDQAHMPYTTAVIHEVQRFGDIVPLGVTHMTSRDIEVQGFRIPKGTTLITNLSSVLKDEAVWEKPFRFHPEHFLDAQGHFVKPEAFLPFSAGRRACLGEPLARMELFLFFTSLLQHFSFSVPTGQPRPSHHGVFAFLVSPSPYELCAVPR

Structure (SMILES): CCC(C)(NC(=O)c1ccccn1)C(=O)NC1CCCCC1 (configuration not stated)
- EC50 [1]: > 195 µM (not active)
- AC50 (Cytochrome P450 3A4): inconclusive
- AC50 (Cytochrome P450 2C9): 17.8 µM (inconclusive)
- AC50 (Cytochrome P450 2C19): 10 µM (inconclusive)

Structure (SMILES): O=C(c1cccc(F)c1)N1CCC2(CC1)CCN(c1ccc(-c3ccccc3)cc1)CC2
- AC50 (Cytochrome P450 2D6): 10 µM (inconclusive)
- AC50 (Cytochrome P450 3A4): inconclusive

Structure (SMILES): CSc1nc(-c2ccc(Cl)cc2)nn1S(=O)(=O)c1ccccc1
- EC50 (cells [2]): > 29.9 µM (inactive)
- IC50 (cells [3]): > 29.9 µM (inactive)

Structure (SMILES): c1ccc(CSc2ccc(-c3ccccn3)nn2)cc1
- EC50 (cells [4]): 85.6 µM (active)
- AC50 (INS1): 5.5 µM (active)
- EC50 [5]: > 30 µM (not active)
- EC50 (cells [6]): 28.4 µM (active)
- IC50 (cells [7]): 15.1 µM (active)
- CC50 [8]: 12 µM (active)
- EC50 [9]: 1.99 µM (active)
- CC50 [10]: 14.2 µM (active)
- CC50 [11]: 36.9 µM (active)

Structure (SMILES): O=C(c1ccco1)N1CCC2(CC1)CN(c1ccccc1)C2
- AC50 (Cytochrome P450 3A4): inconclusive
- AC50 (Cytochrome P450 2C9): 25.1 µM (inconclusive)

Structure (SMILES): COc1ccc(CCN2C(=O)CC(NNC(=O)c3ccc(F)cc3)C2=O)cc1OC (configuration not stated)
- AC50 (Escherichia coli): 20.9 µM (active)

Structure (SMILES): Cn1c(=O)c(-c2cc(F)cc(F)c2)nc2cnc(Oc3ccccc3)nc21
- AC50 (Cytochrome P450 3A4): inconclusive
- AC50 (Cytochrome P450 2C9): 20 µM (inconclusive)

Structure (SMILES): O=C(CCNc1ccc(F)cc1)c1ccco1
- IC50 (cells [7]): 13.6 µM (active)
- CC50 [8]: 17.9 µM (active)
- CC50 [10]: > 40 µM (active)

Structure (SMILES): O=C(Nc1cccc(C(F)(F)F)c1)C1CCN(S(=O)(=O)c2ccc(N3CCCC3=O)cc2)CC1
- IC50 (Protein Wnt-3a): 6.98 µM (active)

Structure (SMILES): CCOc1ccc(C(=O)CCN2CCCCCC2)cc1
- IC50 (cells [7]): 17.2 µM (active)
- CC50 [8]: > 20 µM (active)
- CC50 [10]: > 40 µM (active)
- CC50 [11]: > 40 µM (active)

Structure (SMILES): Clc1ccc(CSc2nncn2-c2ccc3c(c2)OCCO3)cc1
- EC50 [12]: > 120 µM (not active)
- IC50 [13]: > 80 µM (inactive)
- EC50 [14]: > 120 µM (not active)
- EC50 [15]: > 120 µM (not active)

Structure (SMILES): O=C(CN1C(=O)NC2(CCCCC2)C1=O)NCc1cccs1
- AC50 (Escherichia coli): 34.2 µM (active)

Structure (SMILES): O=C(O)C1C2C=CC(C2)C1C(=O)NCCc1cccc(Cl)c1 (configuration not stated)
- EC50 (cells [2]): > 29.9 µM (inactive)
- IC50 (cells [3]): > 29.9 µM (inactive)
- EC50 [16]: > 53 µM (inactive)
- IC50 [17]: > 47.1 µM (inactive)

Structure (SMILES): O=C(NNc1ccnc2cc(Cl)ccc12)C1CCCCC1
- AC50 [18]: 1.39 µM (active)
- IC50 [13]: > 80 µM (inactive)
- AC50 (INS1): 1.42 µM (active)
- AC50 [19]: < 0.26 µM (active)
- AC50 [20]: 0.409 µM (active)

Structure (SMILES): CN(CCOc1ccc(Cl)cc1)C(=O)c1cccc(S(=O)(=O)N2CCN(c3ccc(F)cc3)CC2)c1
- AC50 [18]: 6.21 µM (active)
- AC50 [19]: 1.77 µM (active)
- AC50 [20]: 2.46 µM (active)
- IC50 (Protein Wnt-3a): 8.36 µM (active)

Structure (SMILES): CC(=O)c1cc(CN2CCN(C3CCCCC3)C(CCO)C2)cs1 (configuration not stated)
- AC50 (Escherichia coli): 27.7 µM (active)

Structure (SMILES): COc1ccc(O)c(C#N)c1C#N.COc1ccc(OC)c(C#N)c1C#N
- GI50 (P388): > 100 µM (inactive)
- GI50 (SN12K1): > 100 µM (inactive)
- GI50 (P388/ADR): > 100 µM (inactive)

Structure (SMILES): CNC(=O)OCc1c(CO)nc(SC)n1C
- GI50 (P388): > 100 µM (inactive)
- GI50 (SN12K1): > 100 µM (inactive)
- GI50 (P388/ADR): > 100 µM (inactive)

Structure (SMILES): O=C(O)c1ccccc1/N=C/c1ccc(N(CCCl)CCCl)cc1
- GI50 (P388): 19.2 µM (inactive)
- GI50 (SN12K1): > 100 µM (inactive)
- GI50 (P388/ADR): 24.8 µM (inactive)

Structure (SMILES): NN
- GI50 (P388): 105 µM (inactive)
- GI50 (SN12K1): 96.8 µM (inactive)
- GI50 (P388/ADR): 68.5 µM (inactive)

Structure (SMILES): Brc1ccc2[nH]c3c(C4=NCCC4)nccc3c2c1
- GI50 (P388): 9.51 µM (inactive)
- GI50 (SN12K1): 9.98 µM (inactive)
- GI50 (P388/ADR): 9.57 µM (inactive)

Structure (SMILES): C#CCN1CCN(C(=S)N/N=C(\C)c2ccccn2)CC1
- GI50 (P388): < 0.01 µM (active)
- GI50 (SN12K1): 0.01 µM (active)
- GI50 (P388/ADR): < 0.01 µM (active)

Structure (SMILES): Cc1ccsc1/C=N/NC(=O)c1cc(-c2ccncc2)nc2ccccc12
- EC50 (BJ [21]): 4.22 µM (inconclusive)
- IC50 [13]: 47.1 µM (inactive)
- EC50 [22]: 2.94 µM (active)
- EC50 (BJ [23]): 2.88 µM (active)
- AC50 [24]: 0.168 µM (active)
- EC50 (BJ [25]): 2.93 µM (inconclusive)

Structure (SMILES): CC(C)=CC1C(C(=O)O)C1(C)C (configuration not stated) [CHRYSANTHEMIC ACID]
- GI50 (P388): > 750 µM (inactive)
- GI50 (SN12K1): > 750 µM (inactive)
- GI50 (P388/ADR): 488 µM (inactive)

Structure (SMILES): C[C@@H]1CN(c2c(F)c(F)c3c(=O)c(C(=O)O)cn(C4CC4)c3c2F)C[C@H](C)N1 [ORBIFLOXACIN]
- AC50 (Escherichia coli): 0.657 µM (active)
